The results in this text go back to patent US20080090805A1, “CB-1 MODULATING COMPOUNDS AND THEIR USE” (ACADIA PHARMACEUTICALS INC., priority 2005, published 2008).

The test system of one series is NSA mice. As to the kind of experiment: Hypothermia study (block of CP 55,940-induced hypothermia). The series is classed as in vivo. More on the design: Hypothermia 3 mg/kg / Hypothermia 0.3 mg/kg: unit not given here. To be noted: for Hypothermia ID50: block of CP 55,940-induced hypothermia. On the procedure:
. […] Core body temperatures were then obtained at various time points following CP 55,940 administration. Core body temperature (to the nearest 0.1° C.) was obtained by rectal probe.

Series [1] can be described thus: Clearance study, liver microsomes (rats). To be noted: rat, pH 7.4.
Series [2] can be described thus: Clearance study, liver microsomes (human). To be noted: pH 7.4.

As to `O=C(NCc1cccc(Cl)c1)c1ccc2c(c1)N=C(c1ccc(Cl)cc1)c1ccccc1S2` [drawing 1614], in the series on NSA mice, the “Hypothermia 3 mg/kg” value is −16.
On the same count and under the same terms, to `Cc1ccsc1C1=Nc2cc(C(=O)NN3CCCCC3)ccc2Sc2ccccc21` [drawing 1615] belongs 31.
On to `Cc1csc(CNC(=O)c2ccc3c(c2)N=C(c2cccc(C)n2)c2ccccc2S3)c1` [drawing 1616], for which, in the series with NSA mice, the “Hypothermia 0.3 mg/kg” value stood at 42, the “Hypothermia 3 mg/kg” value is 54 and the Hypothermia ID50 is 1.8 mg/kg.
For the molecule `CCCCNC(=O)c1ccc2c(c1)N=C(c1ccc(Cl)cc1)c1ccc(Cl)cc1S2` [drawing 1617], the “Hypothermia 3 mg/kg” value in the series with NSA mice is given as 30.
For the molecule `O=C(NCc1cccc(Cl)c1)c1ccc2c(c1)N=C(c1ccc(F)cc1)c1ccccc1S2` [drawing 1618], in the series with NSA mice, the “Hypothermia 0.3 mg/kg” value turned out to be 16 and the “Hypothermia 3 mg/kg” value was determined as 50.
As for `CCCCNC(=O)c1ccc2c(c1)N=C(c1ccc(Cl)cc1)c1ccccc1[S+]2[O-]` (stereo not drawn) [drawing 1619], the “Hypothermia 3 mg/kg” value with NSA mice worked out at 31.
Same read-out and setting: for `O=C(NCc1cccnc1)c1ccc2c(c1)N=C(c1cccc(F)c1)c1ccccc1S2` [drawing 1621] the value was 17; for `O=C(NCc1cccs1)c1ccc2c(c1)N=C(c1cccc(Cl)c1)c1ccccc1S2` [drawing 1622], 61.
Regarding `O=C(NCc1cccs1)c1ccc2c(c1)N=C(c1ccccc1F)c1ccccc1S2` [drawing 1623], the “Hypothermia 3 mg/kg” value in the series on NSA mice is 10.
Same read-out and setting: to `O=C(NCCC(F)(F)F)c1ccc2c(c1)N=C(c1ccc(Cl)s1)c1ccccc1S2` [drawing 1624] belongs 37; to `CC(C)CNC(=O)c1ccc2c(c1)N=C(c1ccc(Cl)cn1)c1ccc(F)cc1S2` [drawing 1625], 27.
The same measure, in the same setting: to `CCCCNC(=O)c1ccc2c(c1)N=C(c1ccc(Cl)c(F)c1)c1ccccc1S2` [drawing 1626] belongs 79; to `CCCCNC(=O)c1ccc2c(c1)N=C(c1ccc(Cl)cn1)c1cc(F)ccc1S2` [drawing 1627], 8.
Regarding `O=C(NCc1cccs1)c1ccc2c(c1)N=C(c1ccc(Cl)cc1)c1ccccc1S2` [drawing 1628], in the series with NSA mice, the “Hypothermia 3 mg/kg” value amounted to 92 and the Hypothermia ID50 amounted to 0.9 mg/kg.
With `CCCCNC(=O)c1ccc2c(c1)N=C(c1ccc(F)cn1)c1ccccc1S2` [drawing 1629], the “Hypothermia 3 mg/kg” value in the series with NSA mice turned out to be 54.
On to `O=C(NCc1ccc(F)cc1)c1ccc2c(c1)N=C(c1ccc(Cl)cc1)c1ccccc1S2` [drawing 1630], for which, in the series with NSA mice, the “Hypothermia 0.3 mg/kg” value is given as 18, the “Hypothermia 3 mg/kg” value is recorded as 83 and the Hypothermia ID50 stood at 1.8 mg/kg.
`O=C(NCc1ccco1)c1ccc2c(c1)N=C(c1cccc(F)c1)c1ccccc1S2` [drawing 1631]: in the series on NSA mice, the “Hypothermia 3 mg/kg” value stood at 21.
Still for that read-out and setting: to `O=C(NC1CCCCC1)c1ccc2c(c1)N=C(c1cccc(F)c1)c1ccccc1S2` [drawing 1632] belongs 44.
Still for that read-out and setting: to `O=C(NCc1cccnc1)c1ccc2c(c1)N=C(c1ccc(Cl)cc1)c1ccccc1S2` [drawing 1633] belongs 27.
Regarding `CC(C)CNC(=O)c1ccc2c(c1)N=C(c1ccc(Cl)cc1)c1ccccc1S2` [drawing 1634], in the series on NSA mice, the “Hypothermia 0.3 mg/kg” value is recorded as 25 and the “Hypothermia 3 mg/kg” value is reported as 79.
In the case of `C[C@@H]1CCC[C@H](C)N1NC(=O)c1ccc2c(c1)N=C(c1cccc(F)c1)c1ccccc1S2` [drawing 1635], the “Hypothermia 3 mg/kg” value in the series with NSA mice worked out at 17.
On to `CC(C)CNC(=O)c1ccc2c(c1)N=C(c1ccc(F)cc1)c1ccccc1S2` [drawing 1636], for which, in the series with NSA mice, the “Hypothermia 0.3 mg/kg” value is recorded as 14 and the “Hypothermia 3 mg/kg” value is 53.
As to `O=C(NCc1ccccn1)c1ccc2c(c1)N=C(c1ccc(Cl)cc1)c1ccccc1S2` [drawing 1637], the “Hypothermia 3 mg/kg” value in the series on NSA mice was determined as 42.
Take `O=C(NCc1ccccc1)c1ccc2c(c1)N=C(c1cccc(Cl)c1)c1ccccc1S2` [drawing 1638]: in the series with NSA mice, the “Hypothermia 3 mg/kg” value is 27.
Still for that read-out and setting: to `Cc1ccsc1C1=Nc2cc(C(=O)NCc3ccco3)ccc2Sc2ccccc21` [drawing 1639] belongs 30.
`O=C(NCc1ccc(F)cc1)c1ccc2c(c1)N=C(C1CCCCC1)c1ccccc1S2` [drawing 1640]: in the series on NSA mice, the “Hypothermia 0.3 mg/kg” value amounted to 24, the “Hypothermia 3 mg/kg” value is reported as 80 and the Hypothermia ID50 amounted to 1.5 mg/kg.
Take `O=C(NCc1cccnc1)c1ccc2c(c1)N=C(c1cccc(Br)c1)c1ccccc1S2` [drawing 1641]: in the series on NSA mice, the “Hypothermia 0.3 mg/kg” value is listed as 0 and the “Hypothermia 3 mg/kg” value amounted to 56.
For `Cc1ccsc1C1=Nc2cc(C(=O)NCc3cccs3)ccc2Sc2ccccc21` [drawing 1642], in the series on NSA mice, the “Hypothermia 3 mg/kg” value was 25.
Regarding `O=C(NCCc1cccnc1)c1ccc2c(c1)N=C(c1cccc(Cl)c1)c1ccccc1S2` [drawing 1643], in the series with NSA mice, the “Hypothermia 3 mg/kg” value was found to be 41.
`CC(C)CNC(=O)c1ccc2c(c1)N=C(c1ccc(Cl)s1)c1ccc(F)cc1S2` [drawing 1644]: in the series with NSA mice, the “Hypothermia 3 mg/kg” value was determined as 12.
For `O=C(NCc1ccc(F)cc1)c1ccc2c(c1)N=C(c1ccc(Cl)cc1)c1ccccc1[S+]2[O-]` (stereo not drawn) [drawing 1645], in the series with NSA mice, the “Hypothermia 3 mg/kg” value came to 22.
For `CC(C)CNC(=O)c1ccc2c(c1)N=C(c1cccc(Cl)c1)c1ccccc1S2` [drawing 1646], in the series with NSA mice, the “Hypothermia 3 mg/kg” value was 54.
With `O=C(NCc1ccccc1)c1ccc2c(c1)N=C(c1ccc(Cl)cc1)c1ccccc1S2` [drawing 1648], in the series with NSA mice, the “Hypothermia 3 mg/kg” value is 68.
The same measure, in the same setting: to `CC(C)CCNC(=O)c1ccc2c(c1)N=C(c1ccccn1)c1ccccc1S2` [drawing 1649] belongs 21.
On to `O=C(NCc1ccco1)c1ccc2c(c1)N=C(c1ccc(Cl)cc1)c1ccccc1S2` [drawing 1650], for which, in the series with NSA mice, the “Hypothermia 0.3 mg/kg” value worked out at 28, the “Hypothermia 3 mg/kg” value turned out to be 79 and the Hypothermia ID50 is 0.9 mg/kg.
Take `O=C(NN1CCCCC1)c1ccc2c(c1)N=C(c1ccc(Cl)cn1)c1ccccc1S2` [drawing 1651]: the “Hypothermia 3 mg/kg” value with NSA mice was found to be 57.
For `O=C(NCc1cccc(Cl)c1)c1ccc2c(c1)N=C(N1CCC(F)(F)CC1)c1ccccc1S2` [drawing 1652], in the series with NSA mice, the “Hypothermia 0.3 mg/kg” value was −31 and the “Hypothermia 3 mg/kg” value is on record as 19.
Take `O=C(NCCCC(F)(F)F)c1ccc2c(c1)N=C(c1ccc(Cl)cc1F)c1ccccc1S2` [drawing 1653]: the intrinsic clearance (microsomal CLint) at 1 μM in series [1] is 105 µL/min/mg; in series [2], 14 µL/min/mg.
On to `O=C(NCCCC(F)(F)F)c1ccc2c(c1)N=C(c1ccc(Cl)s1)c1ccccc1S2` [drawing 1655], for which the microsomal CLint at 1 μM was determined as 136 µL/min/mg in series [1] and 31 µL/min/mg in series [2].
As to `CC(C)CNC(=O)c1ccc2c(c1)N=C(c1ccc(Cl)cc1)c1ccc(F)cc1S2` [drawing 1657], the microsomal CLint at 1 μM in series [1] is 63 µL/min/mg; in series [2], 11 µL/min/mg.
In the case of `CCCCNC(=O)c1ccc2c(c1)N=C(c1ccc(Cl)cc1)c1ccc(F)cc1S2` [drawing 1663], the values for the microsomal CLint at 1 μM in series [1] and in series [2] were 79 µL/min/mg and 9 µL/min/mg, respectively.
Taken in the same sequence, the figures for `COc1cccc(C2=Nc3cc(C(=O)NCCCC(F)(F)F)ccc3Sc3ccccc32)n1` [drawing 1667] were 144 µL/min/mg and 24 µL/min/mg.
Taken in the same sequence, the figures for `CCCCNC(=O)c1ccc2c(c1)N=C(c1ccc(Cl)s1)c1cc(Cl)ccc1S2` [drawing 1678] were 63 µL/min/mg and 22 µL/min/mg.
